Experiment [1] has as its system IL-6 in A549 cells stimulated with IL-1β. In words: A549 Cell Assay to Measure Inflammation Markers (inhibition of IL-1β-induced IL-6). The note with it: intrinsic activity, Emax class ranges; for Emax: Homo sapiens, A549, A549 Cell Assay to Measure Inflammation Markers; for A549 Emax: A549 Cell Assay to Measure Inflammation Markers. The class given is cell-based. The method, then:
A549 Cell Assay to Measure Inflammation Markers
Further dilution (1:250) of compound was made into assay medium and 50 μL/well diluted drug or DMSO/media control was applied to cells. After a 1 h pre-incubation in a temperature, CO2, and humidity controlled incubator, set to 37° C., 50 μL/well of 4 ng/mL IL-1β diluted in assay media, was applied to cultures. Assay plates, with a final volume of 200 μL/well and final concentrations of 0.1% DMSO and 1 ng/mL IL-1β were returned to incubator for a […] incubation period. Next, plates were spun at 183 g (1000 rpm in Beckman/Coulter Allegra 6KR centrifuge) for 10 min. Cell-free supernatant (150 μL/well) was collected and IL-6 was measured by MSD kit, following protocol of manufacturer, and using MSD SECTOR Imager 6000 instrument. […] Results were represented as IC50 and Emax values.

Experiment [2] addresses T1, Glucocorticoid Receptor (GR) (Homo sapiens, UniProt P04150).
T1 construct: purchased Invitrogen P2893
T1 sequence (P04150 1-777): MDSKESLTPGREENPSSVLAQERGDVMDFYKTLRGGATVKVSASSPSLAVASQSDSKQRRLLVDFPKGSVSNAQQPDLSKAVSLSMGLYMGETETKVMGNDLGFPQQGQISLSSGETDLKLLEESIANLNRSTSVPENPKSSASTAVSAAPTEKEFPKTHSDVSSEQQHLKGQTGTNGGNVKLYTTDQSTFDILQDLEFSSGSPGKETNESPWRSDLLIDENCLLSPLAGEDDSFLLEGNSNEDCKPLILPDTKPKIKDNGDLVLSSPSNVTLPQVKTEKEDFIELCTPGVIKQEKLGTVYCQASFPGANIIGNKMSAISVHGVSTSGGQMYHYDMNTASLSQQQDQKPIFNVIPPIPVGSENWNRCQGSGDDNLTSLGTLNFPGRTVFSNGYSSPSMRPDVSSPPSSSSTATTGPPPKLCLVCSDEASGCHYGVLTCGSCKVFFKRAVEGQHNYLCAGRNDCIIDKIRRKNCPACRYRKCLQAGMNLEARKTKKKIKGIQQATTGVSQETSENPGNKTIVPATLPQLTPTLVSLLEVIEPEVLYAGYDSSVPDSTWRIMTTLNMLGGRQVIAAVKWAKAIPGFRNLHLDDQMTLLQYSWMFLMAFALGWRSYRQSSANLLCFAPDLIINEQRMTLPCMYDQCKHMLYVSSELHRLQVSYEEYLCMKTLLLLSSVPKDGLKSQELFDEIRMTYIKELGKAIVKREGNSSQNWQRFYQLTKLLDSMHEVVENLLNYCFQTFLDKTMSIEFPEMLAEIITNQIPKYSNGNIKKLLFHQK
In words: GR Fluorescence Polarization Assay (PolarScreen Glucocorticoid Receptor Competitor Assay, Red). Conditions: IC50 class ranges, read-out: GR binding. The method in brief:
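Competitive fluorescence-polarization assay using a red fluorescent glucocorticoid tracer with human GR in kit buffer. Compounds serially diluted 1:4 in DMSO, incubated with tracer and GR overnight at 4° C, then polarization read.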
Background: Fluorescence polarisation rises when a labelled molecule tumbles more slowly, as on binding a larger partner.

For the molecule `Cn1nc(C2CC2)c2c1NCC(C)(C)SC2c1ccc(Cl)cc1F` (single isomer, unassigned) [M.3, 4-(4-chloro-2-fluorophenyl)-3-cyclopropyl-1,6,6-trimethyl-4,6,7,8-tetrahydro-1H-pyrazolo[3,4-e][1,4]thiazepine], in experiment [1], the Emax (commonly the size of the effect at its maximum, as opposed to the concentration needed) is less than 50%. In experiment [2], the IC50 is 1 to 10 µM.
Consider `Cn1nc(C2CC2)c2c1NCC(C)(C)SC2c1ccc(Cl)cc1F` (single isomer, unassigned) [M.4, 4-(4-chloro-2-fluorophenyl)-3-cyclopropyl-1,6,6-trimethyl-4,6,7,8-tetrahydro-1H-pyrazolo[3,4-e][1,4]thiazepine], for which the “A549 Emax” value in experiment [1] is on record as “D (a compound with Emax<50%)”. The IC50 in experiment [2] was less than 0.1 µM.
`Cc1nn(CC(O)C(F)(F)F)c2c1C(c1ccc(Cl)cc1Cl)SC(C)(C)CN2` (single isomer, unassigned) [M.5, 3-(4-(2,4-dichlorophenyl)-3,6,6-trimethyl-4,6,7,8-tetrahydro-1H-pyrazolo[3,4-e][1,4]thiazepin-1-yl)-1,1,1-trifluoropropan-2-ol]: the Emax in experiment [1] was less than 50%. The IC50 in experiment [2] lay within 1 to 10 µM.
`Cc1cc(Cl)ccc1[C@H]1SC(C)(C)CNc2c1c(C)nn2C` (single isomer, unassigned) [M.6] came in with an Emax in experiment [1] of less than 50%. The IC50 in experiment [2] is less than 0.1 µM.
The matching figures for `Cc1cc(Cl)ccc1[C@@H]1SC(C)(C)CNc2c1c(C)nn2C` (single isomer, unassigned) [M.7]: less than 50% and 1 to 10 µM.
As to `Cc1ncccc1NC(=O)c1ccc(C2SC(C)(C)CNc3c2c(C)nn3C)c(Cl)c1` (single isomer, unassigned) [M.8, 3-chloro-N-(2-methylpyridin-3-yl)-4-(1,3,6,6-tetramethyl-4,6,7,8-tetrahydro-1H-pyrazolo[3,4-e][1,4]thiazepin-4-yl)benzamide], the Emax in experiment [1] was less than 50%. Also, the IC50 in experiment [2] was 1 to 10 µM.
On to `Cc1ncccc1NC(=O)c1ccc(C2SC(C)(C)CNc3c2c(C)nn3C)c(Cl)c1` (single isomer, unassigned) [M.9, 3-chloro-N-(2-methylpyridin-3-yl)-4-(1,3,6,6-tetramethyl-4,6,7,8-tetrahydro-1H-pyrazolo[3,4-e][1,4]thiazepin-4-yl)benzamide], for which the “A549 Emax” value in experiment [1] is recorded as “D (a compound with Emax<50%)”. Moreover, in experiment [2], the IC50 was 0.1 to 1 µM.
In experiment [1], `Cc1cc(Cl)ccc1[C@H]1S[C@@H](CCO)CNc2c1c(-c1ccccn1)nn2C` (single isomer, unassigned) [M.10, 2-(4-(4-chloro-2-methylphenyl)-1-methyl-3-(pyridin-2-yl)-4,6,7,8-tetrahydro-1H-pyrazolo[3,4-e][1,4]thiazepin-6-yl)ethanol] had an Emax of less than 50%. Besides, the IC50 in experiment [2] lay within 1 to 10 µM.
Molecule `Cc1cc(Cl)ccc1[C@H]1S[C@H](CCO)CNc2c1c(-c1ccccn1)nn2C` (single isomer, unassigned) [M.11, 2-(4-(4-chloro-2-methylphenyl)-1-methyl-3-(pyridin-2-yl)-4,6,7,8-tetrahydro-1H-pyrazolo[3,4-e][1,4]thiazepin-6-yl)ethanol] yielded an Emax in experiment [1] of less than 50%. For the same molecule, in experiment [2], the IC50 lay within 1 to 10 µM.
The matching figures for `Cc1cc(Cl)ccc1[C@@H]1S[C@H](CCO)CNc2c1c(-c1ccccn1)nn2C` (single isomer, unassigned) [M.12, 2-(4-(4-chloro-2-methylphenyl)-1-methyl-3-(pyridin-2-yl)-4,6,7,8-tetrahydro-1H-pyrazolo[3,4-e][1,4]thiazepin-6-yl)ethanol]: less than 50% and 0.1 to 1 µM.
The corresponding values for `Cc1cc(Cl)ccc1[C@@H]1S[C@@H](CCO)CNc2c1c(-c1ccccn1)nn2C` (single isomer, unassigned) [M.13, 2-(4-(4-chloro-2-methylphenyl)-1-methyl-3-(pyridin-2-yl)-4,6,7,8-tetrahydro-1H-pyrazolo[3,4-e][1,4]thiazepin-6-yl)ethanol] are less than 50% and less than 0.1 µM.
As to `Cc1cc(Cl)ccc1[C@H]1S[C@H](CCO)CNc2c1c(C)nn2C` (single isomer, unassigned) [M.14, 2-[4-(4-chloro-2-methyl-phenyl)-1,3-dimethyl-4,6,7,8-tetrahydro-1H-pyrazolo[3,4-e][1,4]thiazepin-6-yl]-ethanol], the Emax in experiment [1] was more than 70%. Besides, in experiment [2], the IC50 was in the range of 0.1 to 1 µM.
The matching figures for `Cc1cc(Cl)ccc1[C@H]1S[C@@H](CCO)CNc2c1c(C)nn2C` (single isomer, unassigned) [M.15, 2-[4-(4-chloro-2-methyl-phenyl)-1,3-dimethyl-4,6,7,8-tetrahydro-1H-pyrazolo[3,4-e][1,4]thiazepin-6-yl]-ethanol]: more than 70% and 0.1 to 1 µM.
The corresponding values for `Cc1cc(Cl)ccc1[C@@H]1S[C@@H](CCO)CNc2c1c(C)nn2C` (single isomer, unassigned) [M.16, 2-[4-(4-chloro-2-methyl-phenyl)-1,3-dimethyl-4,6,7,8-tetrahydro-1H-pyrazolo[3,4-e][1,4]thiazepin-6-yl]-ethanol] are less than 50% and 1 to 10 µM.
The corresponding values for `Cc1cc(Cl)ccc1[C@@H]1S[C@H](CCO)CNc2c1c(C)nn2C` (single isomer, unassigned) [M.17, 2-[4-(4-chloro-2-methyl-phenyl)-1,3-dimethyl-4,6,7,8-tetrahydro-1H-pyrazolo[3,4-e][1,4]thiazepin-6-yl]-ethanol] are less than 50% and 0.1 to 1 µM.
As to `Cc1cc(C#N)ccc1C1SCCNc2c1c(-c1ccccn1)nn2C` (single isomer, unassigned) [M.20, 3-methyl-4-(1-methyl-3-(pyridin-2-yl)-4,6,7,8-tetrahydro-1H-pyrazolo[3,4-e][1,4]thiazepin-4-yl)benzonitrile], the Emax in experiment [1] is more than 70%. Further, in experiment [2], the IC50 is less than 0.1 µM.
In experiment [1], `CCn1nc(-c2ccccn2)c2c1NCCSC2c1ccc(C#N)cc1C` (single isomer, unassigned) [M.22, 3-methyl-4-(1-ethyl-3-(pyridin-2-yl)-4,6,7,8-tetrahydro-1H-pyrazolo[3,4-e][1,4]thiazepin-4-yl)benzonitrile] displayed an Emax of more than 70%. Further, the IC50 in experiment [2] is less than 0.1 µM.
`Cc1cc(OCC#N)ccc1[C@@H]1SC[C@@H](C)Nc2c1c(-c1ccccn1)nn2C` (single isomer, unassigned) [M.23, 2-(4-(1,7-dimethyl-3-(pyridin-2-yl)-4,6,7,8-tetrahydro-1H-pyrazolo[3,4-e][1,4]thiazepin-4-yl)-3-methylphenoxy)acetonitrile] displayed an Emax in experiment [1] of more than 50%. Moreover, the IC50 in experiment [2] was less than 0.1 µM.
`Cc1cc(OCC(N)=O)ccc1[C@@H]1SC[C@@H](C)Nc2c1c(-c1ccccn1)nn2C` (single isomer, unassigned) [M.24, 2-(4-(1,7-dimethyl-3-(pyridin-2-yl)-4,6,7,8-tetrahydro-1H-pyrazolo[3,4-e][1,4]thiazepin-4-yl)-3-methylphenoxy)acetamide] returned an Emax in experiment [1] of more than 70%. In addition, the IC50 in experiment [2] is less than 0.1 µM.
The matching figures for `CCn1nc(-c2ccccn2)c2c1N[C@H](C)CS[C@H]2c1ccc(C#CCO)cc1C` (single isomer, unassigned) [M.27, 3-(4-(1-ethyl-7-methyl-3-(pyridin-2-yl)-4,6,7,8-tetrahydro-1H-pyrazolo[3,4-e][1,4]thiazepin-4-yl)-3-methylphenyl)prop-2-yn-1-ol]: more than 60% and less than 0.1 µM.
For the molecule `CCn1nc(-c2ccccn2)c2c1N[C@@H](C)CS[C@H]2c1ccc(C#CCO)cc1C` (single isomer, unassigned) [M.28, 3-(4-(1-ethyl-7-methyl-3-(pyridin-2-yl)-4,6,7,8-tetrahydro-1H-pyrazolo[3,4-e][1,4]thiazepin-4-yl)-3-methylphenyl)prop-2-yn-1-ol], the Emax in experiment [1] is more than 60%. Besides, the IC50 in experiment [2] was less than 0.1 µM.
The matching figures for `CCn1nc(-c2ccccn2)c2c1N[C@H](C)CS[C@H]2c1ccc(C#CC(C)(C)O)cc1C` (single isomer, unassigned) [M.31, 4-(4-(1-ethyl-7-methyl-3-(pyridin-2-yl)-4,6,7,8-tetrahydro-1H-pyrazolo[3,4-e][1,4]thiazepin-4-yl)-3-methylphenyl)-2-methylbut-3-yn-2-ol]: more than 70% and less than 0.1 µM.

(Values after patent US9150592B2, “Heterocyclic nuclear hormone receptor modulators” (AbbVie Inc., priority 2012, dated 2015).)
